Measurements taken from patent publication US10759740B2, “Antibacterial agents” (Rutgers, The State University of New Jersey, priority 2016, dated 2020).

Legend:
[1] = system: Listeria monocytogenes Scott A; test: Broth microdilution assay (MIC); format: cell-based; conditions: BHI broth, 37° C., 24 h, no visible growth
Description: (§1) From the frozen stock (−80° C.), bacteria were inoculated into brain-hear infusion (BHI) agar (Becton Dickinson, Franklin Lakes, N.J.) and propagated under aerobic conditions at 37° C. for 24 h. After the incubation, one colony of each bacterial strain was transferred to BHI broth (Becton Dickinson, Franklin Lakes, N.J.) and sub-cultured at least twice into BHI before being used in experiments.
(§2) The minimal inhibitory concentration (MIC) of CAms were identified using a broth microdilution assay modified from previous studies. Briefly, the stock solutions of CAMs were first prepared by dissolving in double-distilled water (ddH2O) and then diluted in BHI broth at pre-determined concentrations. Further serial 2-fold dilutions were performed in a 96-well microplate (Becton Dickinson, Franklin Lakes, N.J.) with BHI broth. The inoculum concentration was adjusted to 5×10^6 CFU/mL with ultraviolet-visible (UV-vis) spectroscopy at 600 nm. An equal volume (100 μL) of bacterial suspension was added to each microplate well with a final volume of 200 μL. Plates were incubated at 37° C. for 24 h under aerobic conditions. The lowest CAm concentration that yielded no visible growth was recorded as the MIC. Cetyltrimethylammonium bromide (CTAB), a cationic amphiphile, served as a positive control that could mimic the proposed bactericidal mechanism of the newly synthesized tartaric acid-based compounds.
(§3) CAms were evaluated against five selected pathogenic microorganisms, including Gram-positive bacteria (i.e., S. aureus and L. monocytogenes) and Gram-negative bacteria (i.e., E. coli, S. typhimurium, and P. aeruginosa), using a turbidity-based microdilution method. MICs were taken as the lowest concentrations that inhibited the visible bacterial growth. […] The higher MIC values for the Gram-negative bacteria could be attributed to the presence of an additional lipopolysaccharide layer, which forms a hydrophilic barrier that could prevent penetration of the highly hydrophobic CAms.

[2] = system: Escherichia coli O157:H7; test: Broth microdilution assay (MIC); format: cell-based; conditions: BHI broth, 37° C., 24 h, no visible growth
Description: as §1, §2, §3

[3] = system: Pseudomonas aeruginosa ATCC 15442; test: Broth microdilution assay (MIC); format: cell-based; conditions: BHI broth, 37° C., 24 h, no visible growth
Description: as §1, §2, §3

[4] = system: Staphylococcus aureus ATCC 13565; test: Broth microdilution assay (MIC); format: cell-based; conditions: BHI broth, 37° C., 24 h, no visible growth
Description: as §1, §2, §3

[5] = system: L. rhamnosus biofilm; test: Minimum biofilm bactericidal concentration (MBC-B); format: cell-based, Lactobacillus rhamnosus; conditions: pre-formed biofilm, ≥3 log reduction
Description: G. vaginalis ATCC 14019 strain was grown overnight in Brain Heart Infusion broth (Difco, Sparks, Md.) supplemented with 3% horse serum (sBHI) (JRH Biosciences, KS), while BHI supplemented with 1% glucose (BHIG) was used for biofilm formation assays. Each experiment using G. vaginalis was performed anaerobically (10% hydrogen, 5% carbon dioxide, and 85% nitrogen) within anaerobic glove boxes (Coy Laboratory Products, Inc., Grass Lake, Mich., USA). Three species of vaginal Lactobacillus were used in this study to evaluate the possible harmful effects of CAms on beneficial bacteria: Lactobacillus plantarum ATCC 39268, Lactobacillus rhamnosus 160 (provided by Dr. Aroutcheva, Rush University Medical Center) and Lactobacillus gasseri ATCC 33323; all were grown for 18-24 h in DeMan, Rogosa and Sharpe broth (MRS Difco B D, Franklin Lakes, N.J., USA) under aerobic conditions at 37° C. For lactobacilli biofilm formation, MRS broth supplemented with 1% glucose and 2% sucrose (Fisher Scientific, Waltham, Mass., USA) was utilized.
This assay was performed according to Algburi et al. (Algburi et al., 2015. Path Dis 73(5)) with minor modifications: the overnight-grown G. vaginalis was diluted to approximately 10^7 CFU/ml. For the biofilm formation assay, aliquots of 200 μl were added into a 96-well tissue culture microplate, sealed by amplification tape (Nalge Nunc International, Rochester, N.Y., USA) and incubated for 24-36 h at 37° C. After incubation, the planktonic cells were removed by gently washing the biofilm twice with 200 μl of fresh broth. The biofilm was then treated with 200 μl of a predetermined concentration of the tested compound. The microplate was incubated for 24 h at 37° C. under anaerobic conditions. After incubation, the antimicrobials (supernatant) were discarded and the biofilm was washed twice with fresh BHIG broth. The biofilm was then disrupted by vigorous pipetting, in order to determine the number of biofilm-associated cells using the spot plate method.

[6] = system: Salmonella enterica serovar typhimurium; test: Broth microdilution assay (MIC); format: cell-based; conditions: BHI broth, 37° C., 24 h, no visible growth
Description: as §1, §2
CAms were evaluated against five selected pathogenic microorganisms, including Gram-positive bacteria (i.e., S. aureus and L. monocytogenes) and Gram-negative bacteria (i.e., E. coli, S. typhimurium, and P. aeruginosa), using a turbidity-based microdilution method. MICs were taken as the lowest concentrations that inhibited the visible bacterial growth.

[7] = system: planktonic cells of G. vaginalis; test: Checkerboard assay, planktonic cells; format: cell-based, Gardnerella vaginalis; conditions: for MIC of CAm in combination with metronidazole: 24 h; for MIC: read-out: MIC when used alone
Description: To evaluate the potential effectiveness of the antimicrobial combinations on planktonic and biofilm cells, a checkerboard assay was performed following Algburi et al. (Algburi et al., 2015. Path Dis 73(5)) with minor modifications. For planktonic cells, the overnight grown G. vaginalis was diluted to approximately 10^6 CFU/ml. Each antimicrobial agent was diluted twofold with sBHI broth into two separate 96-well non-tissue culture microplates. From each dilution of antimicrobial B, 50 μl was added horizontally over 50 μl of antimicrobial A. Then, 100 μl of bacterial suspension (10^6 CFU/ml) was separately added to the predetermined concentration of antimicrobial combinations. The MIC of each combination was determined after 24 h of incubation.
Isobolograms were used to compare the MIC and MBC-B values of each antimicrobial alone with its MIC and MBC-B values in combination with other antimicrobials. The point on the axis (X) refers to MIC or MBC-B values of the first antimicrobial with the coordinates (0, x), and the point on the axis (Y) represents the MIC or MBC-B values of the second antimicrobial with the coordinates (y, 0) when they used alone. The two MIC or MBCs-B values are connected by a dashed line (Turovskiy Y, Chikindas M L. 2011 Probiotics Antimicrob Proteins 3:144-149). The MICs or MBCs-B of each antimicrobial combination are plotted as dots on the graph. Results are expressed according to the locations of these dots from the line that connects MICs or MBCs-B of the first and second antimicrobials. When MICs or MBCs-B values are located under the line, the two combining antimicrobials are synergized, but antagonized against the tested microorganism when these dots of interaction are above. An additive effect is observed when these dots are located on the line.

SMILES | MIC L. monocytogenes (G+) [1] [µg/mL] | MIC E. coli (G−) [2] [µg/mL] | MIC P. aeruginosa (G−) [3] [µg/mL] | MIC S. aureus (G+) [4] [µg/mL] | MBC-B L. rhamnosus [5] [µM] | MIC S. typhimurium (G−) [6] [µg/mL] | MIC of CAm in combination with metronidazole [7] [µM] | MIC [7] [µM]
CCCCCCCCCCOC(C(=O)NCCN)C(OCCCCCCCCCC)C(=O)NCCN.Cl.Cl (stereo not drawn) [5b] | 0.95 | 3.9 | 3.9 | 0.95 | >850 | 3.9 | 0.2 | 1.1
CCCCCCCC(=O)OC(C(=O)NCCN)C(OC(=O)CCCCCCC)C(=O)NCCN.Cl.Cl (stereo not drawn) [8a] | 31.2 | 62.5 | 31.2 | 31.2 | >890 | 62.5 | 3.4 | 24.4
CCCCCCCCCC(=O)OC(C(=O)NCCN)C(OC(=O)CCCCCCCCC)C(=O)NCCN.Cl.Cl (stereo not drawn) [8b] | 1.9 | 3.9 | 3.9 | 1.9 | >810 | 3.9 | 0.2 | 10
